Common to all, as to type: biochemical
Assay [1] relates to factor Xa. Put plainly: factor Xa chromogenic assay with guanidine derivatives (substrate S-2732, mAbs/min at 405 nm). The settings on record: for factor Xa inhibition: Fig. 4, dilutions in water, 6nkat/mL factor Xa, 20mM HEPES pH 7.5, 1.5 mM S-2732, ranking between compounds; for factor Xa activity: Fig. 3, activity plotted against guanidine derivative or NaCl concentration, 6 nkat/mL factor Xa, 20mM Hepes pH 7.5, 37°C, 1.5mM S-2732. The protocol: In this experiment, activity of factor Xa in the presence of guanidine sulfate and its derivatives (e.g., 1-methylguanidine sulfate, 1,1-dimethylguanidine sulfate, 1,1-diethylguanidine, N-benzyl, N-methylguanidine sulfate, 1,1,3,3-tetramethylgunidine and 1,1-dimethylbiguanide HCl) was evaluated using a chromogenic assay. In the experiment, each guanidine derivative was dissolved in deionized (DI) water to a final concentration of 100mM. A number of such guanidine dilutions were prepared. Guanidine derivative levels in the solutions were tested in triplicate at 37°C as follows: 40µL (microliters) of each guanidine derivative level was incubated for 20 seconds (s) to 60s before 40µL of 6 nkat/mL factor Xa in 20mM Hepes pH 7.5 buffer was added to the reaction. After an incubation period of 150s to 180s, 100µL of 1.5mM factor Xa chromogenic substrate S-2732™ was added to the reaction and milli-absorbance per minute (mAbs/min) at 405nm (nanometers) was measured after a 20s delay.
In this experiment, the effects of guanidine sulfate and the guanidine derivatives: 1-methylguanidine sulfate, 1,1-dimethylguanidine sulfate, 1,1-diethylguanidine, and N-benzyl, N-methylguanidine sulfate were analyzed using a chromogenic assay. A number of dilutions were prepared in water with guanidine or a guanidine derivative of the type described herein. 40µL of each of the guanidine or guanidine derivatives were mixed for 20s to 60s with 40µL of 6nkat/mL factor Xa diluted in 20mM HEPES, pH 7.5 buffer. After an incubation period of 150s to 180s, 100µL of the factor Xa chromogenic substrate S-2732™ (1.5 mM) was added to each of the guanidine and factor Xa mixtures and each mixture was chromogenically measured at 405nm mAbs/min after a 20s delay.

The subject of assay [2] is factor Xa. Put plainly: factor Xa substrate turnover rates at a range of factor Xa levels, 1,1-dimethylguanidine compared to NaCl. Particulars: Fig. 6; 22mM 1,1-dimethylguanidine compared to 33 mM NaCl; 37°C, 1.5mM S-2732. How it is done:
Guanidine derivatives modulate factor Xa enzymatic activity in a reaction, as explained previously, thereby slowing-down the reaction. As a result, greater amounts and/or concentrations of factor Xa can be used in a reaction when a guanidine derivative is incorporated into the reaction. In this experiment, factor Xa levels were tested in a reaction in triplicate at 37°C as follows: 40µL of factor Xa was incubated for 20s to 60s before 40µL of 100mM 1,1-dimethylguanidine or 150mM NaCl in water was added to the reaction. After an incubation period of 150s to 180s, 100µL of 1.5mM factor Xa chromogenic substrate S-2732™ was added to the reaction and mAbs/min at 405 nm was measured after a 20s delay. In Fig. 6, substrate turnover rates (e.g., coloring of the substrate) in the presence of 22mM 1,1-dimethylguanidine 601 were compared to substrate turnover rates in the presence of 33 mM NaCl 602. As evident from Fig. 6, greater amounts and/or concentrations of factor Xa can be added to the reaction in the presence of 1,1-dimethylguanidine to produce the same substrate turnover rates relative to NaCl. […] Greater amounts and/or concentrations of factor Xa facilitate detection of factor Xa inhibitors or reversal of such inhibitors in an assay, as noted previously.

The test system of assay [3] is factor Xa. The experiment in a line: factor Xa chromogenic activity in plasma sample containing dimethylguanidine (9:1 sample to factor Xa ratio). The settings on record: Fig. 7, 50mM compared to 25mM dimethylguanidine, 1.5 mM S-2732, 37°C. The protocol: In this experiment, 180µL of a plasma sample containing dimethylguanidine (DMG) and 1.5 mM substrate S-2732™ were mixed with 20µL of factor Xa (a 9:1 sample to factor Xa ratio). The activity of factor Xa was determined at 37°C based on chromogenic activity of the substrate. The activity of factor Xa linearly correlates with the factor Xa concentration in the presence of dimethylguanidine. […] Thus, increasing the amount of dimethylguanidine in a sample reduces a rate of the reaction. In some implementations, dimethylguanidine can be added to a reaction at a concentration of up to about 500mM.

Structures can show the parent of a compound that is named as a salt.

In the case of `CCN(CC)C(=N)N.O=S(=O)(O)O` [1,1-diethylguanidine sulfate], the “factor Xa inhibition” value in the assay on factor Xa [1] is recorded as “largest extent of factor Xa inhibition”.
On to `CN(C)C(=N)NC(=N)N` [1,1-dimethyl-biguanide, reference compound], for which, in the assay on factor Xa [1], the “factor Xa activity” value was “modulate factor Xa dose-dependently, although less than 1-methylated guanidine sulfate”.
`CN(C)C(=N)N.O=S(=O)(O)O` [1,1-dimethylguanidine sulfate]: the “factor Xa inhibition” value with factor Xa [1] is listed as “largest extent of factor Xa inhibition”.
On to `CN(C)C(=N)N` [1,1-dimethylguanidine], for which the substrate turnover rates result in the assay with factor Xa [2] is “the reaction has been slowed-down”. Also, the “rate of the reaction (activity of factor Xa)” value with factor Xa [3] is given as “slows reaction of the factor Xa in a sample greater than 25mM”.
For the compound `CNC(=N)N` [1-methylguanidine sulfate], in the assay on factor Xa [1], the “factor Xa activity” value is “modulates factor Xa dose-dependently” and the “factor Xa inhibition” value is on record as “reduced factor Xa inhibition as compared to the factor Xa inhibition of mixtures containing dialkylated guanidine derivatives”.
For `CN(Cc1ccccc1)C(=N)N.O=S(=O)(O)O` [N-benzyl N-methylguanidine sulfate], the “factor Xa inhibition” value in the assay with factor Xa [1] was “reduced factor Xa inhibition as compared to the factor Xa inhibition of mixtures containing dialkylated guanidine derivatives”.
In the case of `N=C(N)N` [guanidine sulfate], in the assay on factor Xa [1], the “factor Xa activity” value is “modulate factor Xa dose-dependently, although less than 1-methylated guanidine sulfate” and the “factor Xa inhibition” value is “least amount of reduction in factor Xa inhibition”.
Consider NaCl [reference compound], for which, in the assay on factor Xa [1], the “factor Xa activity” value was “activates factor Xa activity”.

The values are drawn from patent EP4667582A1, “FACTOR XA REAGENT” (Instrumentation Laboratory Company, priority 2024, dated 2025).
